Results published in patent US12297178B2, “Triazole derivative and use thereof” (GYEONGGIDO BUSINESS & SCIENCE ACCELERATOR, priority 2017, dated 2025).

How the values were obtained:
[1] = tested on: UCP1 (uncoupling protein-1); test: Adipocyte differentiation induction experiment: relative UCP1 expression by real time PCR in C3H10T1/2 cells differentiated into white adipocytes; assay type: cell-based; settings: compound 20 μM; for Relative expression level of UCP1 compared to DMSO: relative to DMSO control; for Relative expression level of UCP1 compared to butein: relative to butein 20 μM control
Protocol: C3H10T1/2 cells were commercially purchased, and then differentiated into white adipocytes. The differentiated adipocytes were treated with the compounds obtained in the Preparation Examples at a concentration of 20 μM. A group treated with DMSO at a concentration of 20 μM and a group treated with butein at a concentration of 20 μM were used as a control group, respectively.
While the UCP1 (uncoupling protein-1) is contained in the mitochondria of brown adipocytes or beige adipocytes, it is difficult to find UCP1 in white adipocytes having little mitochondria. Therefore, by measuring the expression level of UCP1, it is possible to determine whether preadipocytes have differentiated into white adipocytes or otherwise brown adipocytes or beige adipocytes. The higher the expression level of UCP1, the more differentiated preadipocytes into brown adipocytes or beige adipocytes.

UCP1 = settings: reported in US Patent Publication No. US 2015/0374643 A1; cited from earlier work

| SMILES | Relative expression level of UCP1 compared to DMSO [1] | Relative expression level of UCP1 compared to butein [1] | Effect on expression level of UCP1 (UCP1) |
| --- | --- | --- | --- |
| COc1ccc(-n2cc(-c3ccc(O)c(O)c3)nn2)c(OC)c1 [Compound 1, 4-(1-(2,4-dimethoxyphenyl)-1H-1,2,3-triazole-4-yl)benzene-1.2-diol] | 3.5 | 12.2 |  |
| Nc1c(-c2ccc(Cl)cc2)nnn1-c1ccc(O)c(O)c1 [Compound 24, 4-(5-amino-4-(4-chlorophenyl)-1H-1,2,3-triazole-1-yl)benzene-1,2-diol] | 10.6 | 29.7 |  |
| Oc1ccc(-c2cn(-c3ccc(Cl)cc3)nn2)cc1O [Compound 2, 4-(1-(4-chlorophenyl)-1H-1,2,3-triazole-4-yl)benzene-1,2-diol] | 6.6 | 18.6 |  |
| O=C(/C=C/c1ccc(O)c(O)c1)c1ccc(O)cc1O [butein] |  |  | increases the expression level of UCP1 |
| C[NH+](C)CCOc1ccc(-n2cc(-c3ccc(O)c(O)c3)nn2)cc1.[Cl-] [Compound 16, 4-(1-(4-(2-(dimethylamino)ethoxy)phenyl)-1H-1,2,3-triazole-4-yl)benzene-1,2-diol Hydrochloride] | 2.3 | 37.0 |  |
| Oc1ccc(-n2cc(-c3ccc(O)c(O)c3)nn2)cc1 [Compound 4, 4-(1-(4-hydroxyphenyl)-1H-1,2,3-triazole-4-yl)benzene-1,2-diol] | 2.1 | 18.6 |  |
| OCCOc1ccc(-n2cc(-c3ccc(O)c(O)c3)nn2)cc1 [Compound 15, 4-(1-(4-(2-hydroxyethoxy)phenyl)-1H-1,2,3-triazole-4-yl)benzene-1,2-diol] | 1.6 | 26.9 |  |
| Oc1ccc(-c2cn(-c3ccc(F)cc3)nn2)cc1O [Compound 3, 4-(1-(4-fluorophenyl)-1H-1,2,3-triazole-4-yl)benzene-1,2-diol] | 12.2 | 34.1 |  |
| Cc1cc(-n2cc(-c3ccc(O)c(O)c3)nn2)ccc1O [Compound 5, 4-(1-(4-hydroxy-3-methylphenyl)-1H-1,2,3-triazole-4-yl)benzene-1.2-diol] | 2.3 | 20.6 |  |
